Assay results as given in PubChem BioAssay (NCI).
Several values for one entry are separate records, joined by “and”; a condition that tells them apart may be missing. Identical values can stand only once.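 Interpolation was linear, between the two tested concentrations surrounding the appropriate level; five concentrations were tested over 48 hours in 96-well plates. At the GI50, growth is halved. At the TGI there is no net growth.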

Key:
Experiment in all cases: NCI tumour cell line growth inhibition, 48 h
LXFL 529 NSCLC = test system: LXFL 529 NSCLC
HCT-116 colon = test system: HCT-116 colon
HOP-92 NSCLC = test system: HOP-92 NSCLC
SK-MEL-5 melanoma = test system: SK-MEL-5 melanoma
M14 melanoma = test system: M14 melanoma
UO-31 renal = test system: UO-31 renal
RXF 393 renal = test system: RXF 393 renal
SNB-19 CNS = test system: SNB-19 CNS
OVCAR-4 ovarian = test system: OVCAR-4 ovarian
CAKI-1 renal = test system: CAKI-1 renal
OVCAR-8 ovarian = test system: OVCAR-8 ovarian
HOP-62 NSCLC = test system: HOP-62 NSCLC
OVCAR-3 ovarian = test system: OVCAR-3 ovarian
BT-549 breast = test system: BT-549 breast
MALME-3M melanoma = test system: MALME-3M melanoma
A549 NSCLC = test system: A549 NSCLC
K-562 leukemia = test system: K-562 leukemia
MOLT-4 leukemia = test system: MOLT-4 leukemia
SNB-75 CNS = test system: SNB-75 CNS
DU-145 prostate = test system: DU-145 prostate
DMS 273 small cell lung = test system: DMS 273 small cell lung
LOX IMVI melanoma = test system: LOX IMVI melanoma
OVCAR-5 ovarian = test system: OVCAR-5 ovarian
SN12C renal = test system: SN12C renal
RXF-631 renal = test system: RXF-631 renal
SR leukemia = test system: SR leukemia
TK-10 renal = test system: TK-10 renal
P388/ADR leukemia = test system: P388/ADR leukemia
MDA-N = test system: MDA-N
HL-60(TB) leukemia = test system: HL-60(TB) leukemia
DMS 114 small cell lung = test system: DMS 114 small cell lung
SNB-78 CNS = test system: SNB-78 CNS
NCI-H460 lung = test system: NCI-H460 lung
SF-295 CNS = test system: SF-295 CNS
SF-268 CNS = test system: SF-268 CNS
A498 renal = test system: A498 renal
MDA-MB-435 = test system: MDA-MB-435
HT29 colon = test system: HT29 colon
NCI-H522 lung = test system: NCI-H522 lung
SK-MEL-2 melanoma = test system: SK-MEL-2 melanoma
ACHN renal = test system: ACHN renal
NCI-H23 lung = test system: NCI-H23 lung
COLO 205 colon = test system: COLO 205 colon
M19-MEL melanoma = test system: M19-MEL melanoma
SN12K1 renal = test system: SN12K1 renal
RPMI-8226 leukemia = test system: RPMI-8226 leukemia
SF-539 CNS = test system: SF-539 CNS
U251 CNS = test system: U251 CNS
HOP-18 NSCLC = test system: HOP-18 NSCLC
UACC-257 melanoma = test system: UACC-257 melanoma
NCI-H226 lung = test system: NCI-H226 lung
SW-620 colon = test system: SW-620 colon
HCC-2998 colon = test system: HCC-2998 colon
CCRF-CEM leukemia = test system: CCRF-CEM leukemia
EKVX NSCLC = test system: EKVX NSCLC
P388 leukemia = test system: P388 leukemia
IGROV1 ovarian = test system: IGROV1 ovarian
KM12 colon = test system: KM12 colon
786-0 renal = test system: 786-0 renal
SK-OV-3 ovarian = test system: SK-OV-3 ovarian
DLD-1 colon = test system: DLD-1 colon
KM20L2 colon = test system: KM20L2 colon
UACC-62 melanoma = test system: UACC-62 melanoma
HCT-15 colon = test system: HCT-15 colon

COc1cc(NS(C)(=O)=O)ccc1Nc1c2ccccc2nc2ccccc12
GI50 (LXFL 529 NSCLC): 5.37 µM and 5.42 µM
TGI (LXFL 529 NSCLC): 17.9 µM and 22.7 µM and 8.92 µM
GI50 (HCT-116 colon): 820 nM and 368 nM and 424 nM
GI50 (HOP-92 NSCLC): 2590 nM and 604 nM
GI50 (SK-MEL-5 melanoma): 618 nM and 282 nM
GI50 (M14 melanoma): 526 nM and 397 nM and 447 nM
GI50 (UO-31 renal): 1390 nM and 288 nM and 231 nM
GI50 (RXF 393 renal): 3370 nM and 2180 nM and 2230 nM
GI50 (SNB-19 CNS): 528 nM and 464 nM and 495 nM
GI50 (OVCAR-4 ovarian): 12.6 µM and 5.08 µM
GI50 (CAKI-1 renal): 550 nM and 213 nM and 308 nM
GI50 (OVCAR-8 ovarian): 1330 nM and 904 nM and 1030 nM
GI50 (HOP-62 NSCLC): 551 nM and 221 nM and 198 nM
GI50 (OVCAR-3 ovarian): 4 µM
TGI (OVCAR-3 ovarian): 7.66 µM [middle of 8 runs]
GI50 (BT-549 breast): 3.14 µM [middle of 4 runs]
GI50 (MALME-3M melanoma): 1270 nM and 511 nM and 515 nM
GI50 (A549 NSCLC): 198 nM and 63.5 nM and 63.7 nM
GI50 (K-562 leukemia): 1940 nM and 1870 nM and 624 nM
GI50 (MOLT-4 leukemia): 181 nM and 45.3 nM and < 25 nM
GI50 (SNB-75 CNS): 221 nM and 335 nM and 341 nM
TGI (DU-145 prostate): 2.59 µM [middle of 5 runs]
GI50 (DMS 273 small cell lung): 53.5 nM and 128 nM
TGI (DMS 273 small cell lung): 2720 nM and 12000 nM and 2020 nM
GI50 (LOX IMVI melanoma): 351 nM and 306 nM and 310 nM
GI50 (OVCAR-5 ovarian): 8.1 µM and 5.64 µM and 6.81 µM
GI50 (SN12C renal): 432 nM and 273 nM and 307 nM
GI50 (RXF-631 renal): 388 nM and 431 nM
TGI (RXF-631 renal): 4.3 µM and 2.93 µM and 5.34 µM
GI50 (SR leukemia): 47.5 nM and 24.5 nM
GI50 (TK-10 renal): 4720 nM and 854 nM and 911 nM
TGI (P388/ADR leukemia): 5.51 µM
GI50 (MDA-N): 4 µM
TGI (MDA-N): 7.41 µM and 16.6 µM and 11.5 µM
GI50 (HL-60(TB) leukemia): 298 nM and 180 nM and < 37.9 nM
GI50 (DMS 114 small cell lung): 114 nM and 98.1 nM
TGI (DMS 114 small cell lung): 6.54 µM and 1.52 µM and 4.56 µM
GI50 (SNB-78 CNS): 5.79 µM and 10.6 µM
TGI (SNB-78 CNS): 17.7 µM and 36.5 µM and 14.4 µM
GI50 (NCI-H460 lung): 58.7 nM and 33.8 nM and 42.5 nM
GI50 (SF-295 CNS): 405 nM and 166 nM and 136 nM
GI50 (SF-268 CNS): 1140 nM and 483 nM and 511 nM
GI50 (A498 renal): 1610 nM and 237 nM and 405 nM
GI50 (MDA-MB-435): 3.04 µM and 11 µM and 7.26 µM
GI50 (HT29 colon): 1370 nM and 888 nM and 991 nM
GI50 (NCI-H522 lung): 3270 nM and 552 nM
GI50 (SK-MEL-2 melanoma): 18 µM and 4.55 µM and 5.73 µM
GI50 (ACHN renal): 311 nM and 194 nM and 183 nM
GI50 (NCI-H23 lung): 550 nM and 377 nM and 368 nM
GI50 (COLO 205 colon): 715 nM and 1110 nM
GI50 (M19-MEL melanoma): 1.54 µM and 5.95 µM
TGI (M19-MEL melanoma): 17.6 µM and 30.8 µM and 8.44 µM
TGI (SN12K1 renal): 4.04 µM
GI50 (RPMI-8226 leukemia): 4.07 µM and 2 µM
GI50 (SF-539 CNS): 531 nM and 360 nM and 410 nM
TGI (SF-539 CNS): 2.27 µM [middle of 7 runs]
GI50 (U251 CNS): 528 nM and 350 nM and 358 nM
GI50 (HOP-18 NSCLC): 878 nM
TGI (HOP-18 NSCLC): 5.23 µM and 3.51 µM
GI50 (UACC-257 melanoma): 11.8 µM and 5.93 µM
GI50 (NCI-H226 lung): 256 nM and 260 nM and 220 nM
GI50 (SW-620 colon): 1490 nM and 242 nM and 351 nM
GI50 (HCC-2998 colon): 2400 nM and 2190 nM and 2340 nM
GI50 (CCRF-CEM leukemia): 91.8 nM and 182 nM and 105 nM
GI50 (EKVX NSCLC): 4.77 µM and 3.01 µM and 2.84 µM
TGI (P388 leukemia): 391 nM
GI50 (IGROV1 ovarian): 1590 nM and 1440 nM and 826 nM
GI50 (KM12 colon): 1710 nM and 1680 nM
TGI (KM12 colon): 11.4 µM [middle of 8 runs]
GI50 (786-0 renal): 458 nM and 279 nM and 270 nM
TGI (786-0 renal): 1.77 µM [middle of 8 runs]
GI50 (SK-OV-3 ovarian): 557 nM and 239 nM and 288 nM
GI50 (DLD-1 colon): 3.58 µM and 15.3 µM
TGI (DLD-1 colon): 16.2 µM and 35.1 µM and 7.54 µM
GI50 (KM20L2 colon): 2180 nM and 3410 nM
TGI (KM20L2 colon): 12.1 µM and 15.3 µM and 5.78 µM
GI50 (UACC-62 melanoma): 491 nM and 951 nM and 705 nM
GI50 (HCT-15 colon): 1700 nM and 1380 nM and 1450 nM
